{
  "source": "paper PMC9924185",
  "about": "“A validated LC–MS/MS method for clinical pharmacokinetics and presumptive phase II metabolic pathways following oral administration of Andrographis paniculata extract” (Scientific Reports, 2023)",
  "key": {"[1]": {"assay": "Clinical pharmacokinetics in plasma after single oral administration of A. paniculata extract", "format": "in vivo, human", "procedure": "(§1) An aliquot of 50 µL of plasma or urine was placed in a 1.5 mL of polypropylene centrifuge micro-tube. Protein was removed from the sample by adding 200 µL of methanol (containing 50.00 ng/mL of IS). The mixture was vortexed for 10 min and was then centrifuged at 12,000 rpm, 4 °C for 10 min. The supernatant was filtered through a […] PVDF membrane (Chrom Tech) and transferred into a glass insert in a vial before LC‑MS/MS analysis.\n(§2) The clinical pharmacokinetic study was designed as an open-labeled, with a single oral dosing, and conducted under a fasting condition. Four healthy subjects were recruited according to the following inclusion criteria: 18—55 years old with a body mass index (BMI) of 18–30 kg/m^2. Study participants were identified as healthy based on laboratory testing and physical examinations. The participants received 3 capsules containing A. paniculata extract (calculated as 60 mg of andrographolide/dose) before breakfast with 240 mL of drinking water. Blood samples, in EDTA tubes, were taken after oral administration at 0, 10, 20, 30, 45 min, and 1, 1.5, 2, 4, 6, 8, 10, 12, 24 h post dose. All blood samples were then centrifuged at 4000 ± 100 rpm, 4 °C for 5 min. Plasma was pipetted and stored in cryotubes at − 80 °C until further analysis. Urine samples were collected during 0–4, 4–8, 8–12, 12–24, 24–32, 32–40 and 40–48 h after dosing and were then kept at − 80 °C before sample extraction.\nPharmacokinetic parameters were determined by non-compartmental analysis using PK solutions software, version 2.0 (Summit Research Services). The maximum concentration of four targeted compounds (Cmax) and the time to reach maximum concentration (Tmax) were taken directly from the individual plasma concentration versus time profiles. The area under the curve from time zero to the last sampling time (AUC0-t) was estimated using the linear trapezoidal rule. The apparent volume of distribution (Vd/F) and the elimination half-life (t1/2) were determined using non-compartmental analysis.\n(§3) Finally, the hydrolysis of glucuronide metabolites in the pharmacokinetic study was performed according to the following process: 50 µL of plasma or urine sample was incubated for 30 min with 50 µL of 1000 U/mL β-glucuronidase in phosphate buffer pH 6.8 (composed of 0.1 M sodium phosphate monobasic and 0.1 M sodium phosphate dibasic) at 37 °C. For the hydrolysis of sulfatase, 50 µL of 100 units/mL of sulfatase in an acetate buffer at pH 5.0 (composed of 0.1 M acetic acid and 0.1 M sodium acetate) was added into 50 µL of sample; the mixture was then incubated at 37 °C for 2 h. The reaction was stopped in all hydrolysis samples with 150 µL of cold methanol, and then protein precipitation was performed prior to LC–MS/MS analysis. However, due to unavailable standard of the conjugated forms (AP-glucuronide and […]). The quantitative analysis of conjugated metabolites was determined after the hydrolysis reaction by enzymatic digestion, and the free form was analyzed without hydrolysis. The conjugated standards of AP-glucuronide or AP-sulfate should be synthesized for determining the exact amount of the glucuronide or sulfate."}, "[2]": {"assay": "Cumulative urine excretion after single oral administration of A. paniculata extract", "format": "in vivo, human", "procedure": "as §1, §2, §3"}, "[3]": {"conditions": "plasma", "quoted_text": "(§4) The stability of plasma and urine samples were evaluated at three different QC concentration levels (LQC, MQC and HQC, n = 3 for each level); the conditions were freeze–thaw stability, long-term stability, short-term stability, and post preparative stability in an autosampler. The evaluation of stability under freeze–thaw condition was carried out over five cycles of − 80 °C for at least 12 h of each cycle. Long-term stability was analyzed after storing the samples at − 80 °C. Short-term stability of each analyte, for up to 8 h during processing on the bench at room temperature, was also evaluated. For evaluation of post-preparative stability, the extracted samples were stored at ambient temperature (4 °C) in an autosampler for 24 h. The analyte was considered as a stable sample when the average percentage of accuracy of the QC sample was in the range of 85–115% and the %CV was not over 15%."}, "[4]": {"assay": "Stability in urine under different storage conditions", "format": "physicochemical, human", "quoted_text": "as §4"}, "[5]": {"conditions": "human, parent compound in plasma, n = 4, single oral dose of extract (60 mg andrographolide), mean ± SD"}, "[6]": {"conditions": "human, parent compound in plasma, n = 4, single oral dose of extract (60 mg andrographolide), median"}, "[7]": {"conditions": "Freeze–thaw stability 5 cycles, 2.50 ng/mL (LQC)"}, "[8]": {"conditions": "Freeze–thaw stability 5 cycles, 500.00 ng/mL (MQC)"}, "[9]": {"conditions": "Freeze–thaw stability 5 cycles, 900.00 ng/mL (HQC)"}, "[10]": {"conditions": "Long term stability 3 months at − 80 °C, 2.50 ng/mL (LQC)"}, "[11]": {"conditions": "Long term stability 3 months at − 80 °C, 500.00 ng/mL (MQC)"}, "[12]": {"conditions": "Long term stability 3 months at − 80 °C, 900.00 ng/mL (HQC)"}, "[13]": {"conditions": "Post preparative stability 24 h at autosampler, 2.50 ng/mL (LQC)"}, "[14]": {"conditions": "Post preparative stability 24 h at autosampler, 500.00 ng/mL (MQC)"}, "[15]": {"conditions": "Post preparative stability 24 h at autosampler, 900.00 ng/mL (HQC)"}, "[16]": {"conditions": "Short term stability 8 h at room temperature, 2.50 ng/mL (LQC)"}, "[17]": {"conditions": "Short term stability 8 h at room temperature, 500.00 ng/mL (MQC)"}, "[18]": {"conditions": "Short term stability 8 h at room temperature, 900.00 ng/mL (HQC)"}},
  "note": "Read-outs that look alike come from different tables or passages of the source.",
  "data": [
    {"compound": "C=C1CC[C@@H]2[C@](C)(CO[C@@H]3O[C@H](CO)[C@@H](O)[C@H](O)[C@H]3O)CCC[C@@]2(C)[C@@H]1CCC1=CCOC1=O", "note": "[AP4, neoandrographolide]", "values": [
      {"measurement": "Cmax", "setting": "[1]; human, parent compound in plasma, healthy subjects n = 4, single oral dose of extract (60 mg andrographolide), mean ± SD", "value": "22.4 ± 5.87", "unit": "ng/mL"},
      {"measurement": "AUC(0-t)", "setting": "[1]; [5]", "value": "44.1 ± 7.48", "unit": "ng·h/mL"},
      {"measurement": "Vd/F", "setting": "[1]; [5]", "value": "0.65 ± 0.13", "unit": "L/kg"},
      {"measurement": "Tmax", "setting": "[1]; [6]", "value": 1.5, "unit": "h"},
      {"measurement": "half-life", "setting": "[1]; [6]", "value": 13.2, "unit": "min"},
      {"measurement": "Amount detected in plasma", "setting": "[1]; parent compound, single oral dose of extract", "value": "only very small amounts"},
      {"measurement": "Conjugated metabolites in plasma", "setting": "[1]; single oral dose of extract", "value": "negligible"},
      {"measurement": "Conjugated metabolites in the urine", "setting": "[2]", "value": "negligible"},
      {"measurement": "Route of excretion", "setting": "[2]", "value": "primarily excreted renally"},
      {"measurement": "%Accuracy", "setting": "[3]; [7]", "value": 99.77, "unit": "%"},
      {"measurement": "Measured concentration", "setting": "[3]; [7]", "value": "2.49 ± 0.14", "unit": "ng/mL"},
      {"measurement": "%Accuracy", "setting": "[3]; [8]", "value": 94.01, "unit": "%"},
      {"measurement": "Measured concentration", "setting": "[3]; [8]", "value": "470.07 ± 13.89", "unit": "ng/mL"},
      {"measurement": "%Accuracy", "setting": "[3]; [9]", "value": 100.73, "unit": "%"},
      {"measurement": "Measured concentration", "setting": "[3]; [9]", "value": "906.60 ± 9.37", "unit": "ng/mL"},
      {"measurement": "%Accuracy", "setting": "[3]; [10]", "value": 93.19, "unit": "%"},
      {"measurement": "Measured concentration", "setting": "[3]; [10]", "value": "2.33 ± 0.12", "unit": "ng/mL"},
      {"measurement": "%Accuracy", "setting": "[3]; [11]", "value": 94.65, "unit": "%"},
      {"measurement": "Measured concentration", "setting": "[3]; [11]", "value": "473.25 ± 26.27", "unit": "ng/mL"},
      {"measurement": "%Accuracy", "setting": "[3]; [12]", "value": 98.12, "unit": "%"},
      {"measurement": "Measured concentration", "setting": "[3]; [12]", "value": "883.06 ± 16.19", "unit": "ng/mL"},
      {"measurement": "%Accuracy", "setting": "[3]; [13]", "value": 102.61, "unit": "%"},
      {"measurement": "Measured concentration", "setting": "[3]; [13]", "value": "2.57 ± 0.12", "unit": "ng/mL"},
      {"measurement": "%Accuracy", "setting": "[3]; [14]", "value": 97.12, "unit": "%"},
      {"measurement": "Measured concentration", "setting": "[3]; [14]", "value": "485.59 ± 17.11", "unit": "ng/mL"},
      {"measurement": "%Accuracy", "setting": "[3]; [15]", "value": 98.43, "unit": "%"},
      {"measurement": "Measured concentration", "setting": "[3]; [15]", "value": "885.84 ± 17.63", "unit": "ng/mL"},
      {"measurement": "%Accuracy", "setting": "[3]; [16]", "value": 98.11, "unit": "%"},
      {"measurement": "Measured concentration", "setting": "[3]; [16]", "value": "2.45 ± 0.19", "unit": "ng/mL"},
      {"measurement": "%Accuracy", "setting": "[3]; [17]", "value": 94.85, "unit": "%"},
      {"measurement": "Measured concentration", "setting": "[3]; [17]", "value": "474.29 ± 22.98", "unit": "ng/mL"},
      {"measurement": "%Accuracy", "setting": "[3]; [18]", "value": 98.96, "unit": "%"},
      {"measurement": "Measured concentration", "setting": "[3]; [18]", "value": "890.60 ± 51.25", "unit": "ng/mL"},
      {"measurement": "%Accuracy", "setting": "[4]; [7]", "value": 93.80, "unit": "%"},
      {"measurement": "Measured concentration", "setting": "[4]; [7]", "value": "2.35 ± 0.08", "unit": "ng/mL"},
      {"measurement": "%Accuracy", "setting": "[4]; [8]", "value": 92.94, "unit": "%"},
      {"measurement": "Measured concentration", "setting": "[4]; [8]", "value": "464.68 ± 10.80", "unit": "ng/mL"},
      {"measurement": "%Accuracy", "setting": "[4]; [9]", "value": 101.12, "unit": "%"},
      {"measurement": "Measured concentration", "setting": "[4]; [9]", "value": "910.07 ± 23.86", "unit": "ng/mL"},
      {"measurement": "%Accuracy", "setting": "[4]; [10]", "value": 93.48, "unit": "%"},
      {"measurement": "Measured concentration", "setting": "[4]; [10]", "value": "2.34 ± 0.16", "unit": "ng/mL"},
      {"measurement": "%Accuracy", "setting": "[4]; [11]", "value": 89.13, "unit": "%"},
      {"measurement": "Measured concentration", "setting": "[4]; [11]", "value": "445.65 ± 10.92", "unit": "ng/mL"},
      {"measurement": "%Accuracy", "setting": "[4]; [12]", "value": 94.77, "unit": "%"},
      {"measurement": "Measured concentration", "setting": "[4]; [12]", "value": "852.94 ± 7.53", "unit": "ng/mL"},
      {"measurement": "%Accuracy", "setting": "[4]; [13]", "value": 96.03, "unit": "%"},
      {"measurement": "Measured concentration", "setting": "[4]; [13]", "value": "2.40 ± 0.15", "unit": "ng/mL"},
      {"measurement": "%Accuracy", "setting": "[4]; [14]", "value": 89.94, "unit": "%"},
      {"measurement": "Measured concentration", "setting": "[4]; [14]", "value": "449.68 ± 2.36", "unit": "ng/mL"},
      {"measurement": "%Accuracy", "setting": "[4]; [15]", "value": 101.81, "unit": "%"},
      {"measurement": "Measured concentration", "setting": "[4]; [15]", "value": "916.25 ± 29.10", "unit": "ng/mL"},
      {"measurement": "%Accuracy", "setting": "[4]; [16]", "value": 97.15, "unit": "%"},
      {"measurement": "Measured concentration", "setting": "[4]; [16]", "value": "2.43 ± 0.07", "unit": "ng/mL"},
      {"measurement": "Measured concentration", "setting": "[4]; [17]", "value": "461.15 ± 18.24", "unit": "ng/mL"},
      {"measurement": "%Accuracy", "setting": "[4]; [18]", "value": 102.82, "unit": "%"},
      {"measurement": "Measured concentration", "setting": "[4]; [18]", "value": "925.37 ± 32.74", "unit": "ng/mL"}
    ]}
  ]
}
